Read-outs that look alike come from different tables or passages of the source.
How the values were obtained:
[1] = Total cell viability by CCK-8 assay; format: cell-based; settings: human
Procedure: (§1) Human peripheral blood mononuclear cells (PBMC) were isolated from healthy donor blood. The cells were seeded in multi-well plates at 7.5×10^5 cells/ml in RPMI 1640 medium including 10% FBS. Osteoclast formation was induced with 20 ng/ml of recombinant human receptor activator of NF-kB-ligand (RANKL) and 10 ng/ml of human M-CSF in the presence of various doses of test compounds. After 48 hours of culture, RANKL and M-CSF was replenished and further cultured for 2 days. Then, the cultured cells were stained for tartrate-resistant acid phosphatase (TRAP). Osteoclasts were identified as TRAP-positive cells with more than 3 nuclei. Total cell viability was assessed by CCK-8 assay (Dojindo, Gaithersburg, Md.) with 24 hour incubation.
as §1, with “Isolated” for “isolated”

[2] = tested on: Human peripheral blood mononuclear cells (PBMC); test: Inhibition of osteoclast formation (RANKL/M-CSF induced, TRAP staining); format: cell-based
Procedure: as §1
as §1, with “Isolated” for “isolated”

[3] = 96 h, read-out: IC50 (compound concentration required for 50% inhibition of osteoclast formation), Table 1, 20 ng/ml RANKL + 10 ng/ml M-CSF, TRAP-positive cells with more than 3 nuclei
[4] = 96 h, read-out: IC50 (compound concentration required for 50% inhibition of osteoclast formation), Table 3, 20 ng/ml RANKL + 10 ng/ml M-CSF, TRAP-positive cells with more than 3 nuclei
[5] = 96 h, read-out: IC50 (compound concentration required for 50% inhibition of osteoclast formation), Table 2, 20 ng/ml RANKL + 10 ng/ml M-CSF, TRAP-positive cells with more than 3 nuclei

Cc1cccc(/C=N/Nc2cc(N3CCOCC3)nc(OCCc3ccccn3)n2)c1 [Compound 12, N-(3-methyl-benzylidene)-N′-[6-morpholin-4-yl-2-(2-pyridin-2-yl-ethoxy)-pyrimidin-4-yl]-hydrazine]
CC50 at 24 h ([1]; Table 1, 24 hour incubation): 3250 nM
IC50 [2, 3]: 15 nM

OCc1cccc(/C=N/Nc2cc(N3CCOCC3)nc(OCCc3ccc(O)cn3)n2)c1 [Compound 44, 6-(2-{4-[N′-(3-Hydroxymethyl-benzylidene)-hydrazino]-6-morpholin-4-yl-pyrimidin-2-yloxy}-ethyl)-pyridin-3-ol]
CC50 at 24 h ([1]; Table 1, 24 hour incubation): > 1000 nM
IC50 [2, 3]: 17 nM

Cc1cccc(Nc2nc3c(N4CCOCC4)nc(OCCOc4ccccn4)nc3[nH]2)c1 [Example 63, {6-morpholin-4-yl-2-[2-(pyridin-2-yloxy)-ethoxy]-9H-purin-8-yl}-m-tolyl-amine]
CC50 at 24 h ([1]; Table 3, 24 hour incubation): > 1000 nM
IC50 [2, 4]: 3 nM

Cc1cccc(C=NNc2cc(N3CCOCC3)nc(OCC(O)c3ccccn3)n2)c1 (stereo not shown) [Compound 42, 2-{4-[N′-(3-Methyl-benzylidene)-hydrazino]-6-morpholin-4-yl-pyrimidin-2-yloxy}-1-pyridin-2-yl-ethanol]
CC50 at 24 h ([1]; Table 1, 24 hour incubation): > 1000 nM
IC50 [2, 3]: 8 nM

Cc1cccc(/C=N/Nc2cc(N3CCOCC3)nc(OCCc3ccc(O)cn3)n2)c1 [Compound 43, 6-(2-{4-[N′-(3-Methyl-benzylidene)-hydrazino]-6-morpholin-4-yl-pyrimidin-2-yloxy}-ethyl)-pyridin-3-ol]
CC50 at 24 h ([1]; Table 1, 24 hour incubation): > 1000 nM
IC50 [2, 3]: 12 nM

Cc1[nH]c2ccc(Nc3nc(OCCc4ccccn4)nc(N4CCOCC4)n3)cc2c1C [Compound 102]
CC50 at 24 h ([1]; Table 2, 24 hour incubation): > 1000 nM
IC50 [2, 5]: 3 nM

COc1ccc(CCOc2nc(Nc3ccc4c(c3)oc3ccccc34)nc(N3CCOCC3)n2)cc1OC [Compound 113, Dibenzofuran-3-yl-{4-[2-(3,4-dimethoxy-phenyl)-ethoxy]-6-morpholin-4-yl-[1,3,5]triazin-2-yl}-amine]
CC50 at 24 h ([1]; Table 2, 24 hour incubation): > 1000 nM
IC50 [2, 5]: 12 nM

Cc1cccc(Nc2nc(N3CCOCC3)c3nc(Nc4cccc(C)c4)n(C)c3n2)c1 [Example 116, 9-Methyl-6-morpholin-4-yl-N^2,N^8-di-m-tolyl-9H-purine-2,8-diamine]
CC50 at 24 h ([1]; Table 3, 24 hour incubation): > 1000 nM
IC50 [2, 4]: 2 nM

C[C@]12CC[C@@H]3c4ccc(O)cc4CC[C@H]3[C@@H]1CC[C@@H]2O [17β-estradiol, reference compound]
IC50 ([2]; read-out: IC50 (compound concentration required for 50% inhibition of osteoclast formation), Table 1, 20 ng/ml RANKL + 10 ng/ml M-CSF, TRAP-positive cells with more than 3 nuclei): 78 nM
IC50 ([2]; read-out: IC50 (compound concentration required for 50% inhibition of osteoclast formation), Table 2, 20 ng/ml RANKL + 10 ng/ml M-CSF, TRAP-positive cells with more than 3 nuclei): 78 nM
IC50 ([2]; read-out: IC50 (compound concentration required for 50% inhibition of osteoclast formation), Table 3, 20 ng/ml RANKL + 10 ng/ml M-CSF, TRAP-positive cells with more than 3 nuclei): 78 nM

Cc1cccc(/C=N/Nc2cc(N3CCOCC3)nc(OCCc3cccc[n+]3[O-])n2)c1 [Compound 28, N-(3-methyl-benzylidene)-N′-{6-morpholin-4-yl-2-[2-(1-oxy-pyridin-2-yl)-ethoxy]-pyrimidin-4-yl}-hydrazine]
CC50 at 24 h ([1]; Table 1, 24 hour incubation): > 1000 nM
IC50 [2, 3]: 70 nM

c1cncc(OCCOc2nc(Nc3ccc4c(c3)oc3ccccc34)nc(N3CCOCC3)n2)c1 [Compound 114, Dibenzofuran-3-yl-{4-morpholin-4-yl-6-[2-(pyridin-3-yloxy)-ethoxy]-[1,3,5]triazin-2-yl}-amine]
CC50 at 24 h ([1]; Table 2, 24 hour incubation): > 1000 nM
IC50 [2, 5]: 24 nM

Cc1cccc(Nc2nc(N3CCOCC3)c3nc(Nc4cccc(C)c4)[nH]c3n2)c1 [Example 79, 6-morpholin-4-yl-N^2,N^8-di-m-tolyl-9H-purine-2,8-diamine]
CC50 at 24 h ([1]; Table 3, 24 hour incubation): > 1000 nM
IC50 [2, 4]: 9 nM

COc1ccc(N(C)c2nc(N3CCOCC3)c3nc(Nc4cccc(C)c4)[nH]c3n2)cc1 [Example 117, N^2-(4-Methoxy-phenyl)-N^2-methyl-6-morpholin-4-yl-N^8-m-tolyl-9H-purine-2,8-diamine]
CC50 at 24 h ([1]; Table 3, 24 hour incubation): > 1000 nM
IC50 [2, 4]: 12 nM

Cc1[nH]c2cc(Nc3nc(OCCOc4cccnc4)nc(N4CCOCC4)n3)ccc2c1C [Compound 115, (2,3-Dimethyl-1H-indol-6-yl)-{4-morpholin-4-yl-6-[2-(pyridin-3-yloxy)-ethoxy]-[1,3,5]triazin-2-yl}-amine]
CC50 at 24 h ([1]; Table 2, 24 hour incubation): > 1000 nM
IC50 [2, 5]: 16 nM

C(=NNc1nc(OCCc2ccccn2)nc(N2CCOCC2)n1)c1c[nH]c2ccccc12 [Compound 116, N-(1H-indol-3-ylmethylene)-N′-[4-morpholin-4-yl-6-(2-pyridin-2-yl-ethoxy)-[1,3,5]triazin-2-yl]-hydrazine]
CC50 at 24 h ([1]; Table 2, 24 hour incubation): > 10000 nM
IC50 [2, 5]: 35 nM

Source: US20080058297A1, “Heterocyclic Compounds For Preventing And Treating Disorders Associated With Excessive Bone Loss” (Synta Pharmaceuticals Corp., priority 2003, published 2008)
